Data set [1] has as its target T1, p15-EC RNH fragment (Human immunodeficiency virus type 1 group M subtype B, UniProt P04585, DELINS1094-1102[…]). Briefly: RNH activity of p15-EC RNH domain fragment, rapid fluorescence assay. Type of data set: biochemical, HIV-1 / Escherichia coli chimera. The note with it: for IC50: read-out: Inhibition of the p15-EC RNH fragment (IC50), 2 mM Mn2+.
Data set [2] deals with T2, HIV-1 RT DNA polymerase (Human immunodeficiency virus type 1 group M subtype B, UniProt P04585). Briefly: RT RNA-dependent DNA polymerase activity assay. Type of data set: biochemical. As to conditions: read-out: Inhibition of RT DNA polymerase activity (IC50).
A short description of data set [3]: Aqueous solubility. As to conditions: aqueous solution. Type of data set: physicochemical.
The target in data set [4] is p15-EC RNH domain fragment (Human immunodeficiency virus type 1 group M subtype B, UniProt P04585, DELINS1094-1102[…]). Nature of the data set: NMR 1H-15N HSQC chemical shift titration, dissociation constant. Type of data set: binding, HIV-1 / Escherichia coli chimera. As to conditions: read-out: Inhibitor dissociation constant, KD.
Data set [5] deals with T1, p15-EC RNH fragment. As to conditions: read-out: Inhibition of the p15-EC RNH fragment (IC50); ref [20]; cited from earlier work.
Data set [6] addresses T2, HIV-1 RT DNA polymerase. The note with it: read-out: Inhibition of RT DNA polymerase activity (IC50); ref [20]; cited from earlier work.
The subject of data set [7] is HIV-1. The note with it: ref [21], [22]; cited from earlier work.

Structures are written as SMILES. Entries after “also recorded” stand apart in the source; their conditions may differ. Read-outs that look alike come from different tables or passages of the source. Where only a bound is given, the exact number is not on record here.

The values that follow come from paper PMC3320797 (Chemical biology & drug design, 2010).

For the compound `O=C(O)c1ccc(-c2cccc(/C=N/NC(=O)c3ccc(O)c(O)c3)c2)cc1` [BHMP03], in data set [1] (IC50 of BHMP03 versus BHMP07), the “Ratio of p15-EC RNH IC50 relative to BHMP07” value is on record as “more than 50 times”. The IC50 in data set [1] and in data set [2] was over 50 µM throughout. Further, the “Aqueous solubility relative to DHBNH” value in data set [3] is “more soluble in aqueous solution than the naphthyl-based DHBNH”.
As for `O=C(O)c1ccc(-c2cccc(/C=N/NC(=O)c3cc(O)c(O)c(O)c3)c2)cc1` [BHMP07], the IC50 (commonly the point on the concentration scale where inhibition reaches its midpoint) in data set [1] was 0.8 ± 0.06 µM; in data set [2] it was 0.3 ± 0.2 µM. Further, the Kd (in general, the concentration at which binding is half-saturated) in data set [4] (residue A76 (502), + 20 mM Mg2+) was determined as 311 ± 41.5 µM; in data set [4] (residue A76 (502), no Mg2+) it was 192 ± 28.9 µM; in data set [4] (residue I79 (505), + 20 mM Mg2+), 372 ± 60.2 µM; in data set [4] (residue I79 (505), no Mg2+), 212 ± 20.1 µM; in data set [4] (residue I114 (526), + 20 mM Mg2+), 321 ± 26.2 µM; in data set [4] (residue I114 (526), no Mg2+) it was 217 ± 38.4 µM. Further, the Kd is 454 ± 151 µM in data set [4] (residue K93, + 20 mM Mg2+); 194 ± 18.3 µM in data set [4] (residue K93, no Mg2+); 246 ± 72.8 µM in data set [4] (residue Q74 (500), + 20 mM Mg2+); 242 ± 18.2 µM in data set [4] (residue V124 (536), no Mg2+); 262 ± 135 µM in data set [4] (residue Y75 (501), + 20 mM Mg2+). In addition, the “Aqueous solubility relative to DHBNH” value in data set [3] is recorded as “higher aqueous solubility than DHBNH; also recorded: more soluble in aqueous solution than the naphthyl-based DHBNH”. Besides, in data set [3] (inhibitor up to 0.8 mM, overnight incubation), the “Solubility at the levels used in the NMR studies” value is “not likely completely soluble in aqueous solution”.
With `COc1ccc2ccccc2c1/C=N/NC(=O)c1ccc(O)c(O)c1` [DHBNH, dihydroxy benzoyl naphthyl hydrazone], the IC50 is 18.5 ± 3.4 µM in data set [5] and over 25 µM in data set [6].
On to `CC(C)c1ccc(O)c(=O)c(O)c1` [β-thujaplicinol], for which the Antiviral activity entry in data set [7] was “neither of these compounds has antiviral activity”.
